ChEMBL document CHEMBL5303304, “EUbOPEN Chemogenomics Library - IncuCyte” (2023)

Assays:
Format in all cases: toxicity, cell-based
Fibroblast = test: Incucyte cell viability with human fibroblast; conditions: 10 µM, compound concentration 10 uM
U2OS = test: Incucyte cell viability with U2OS; conditions: human, 10 µM, compound concentration 10 uM
HEK-293T = test: Incucyte cell viability with HEK293T; conditions: human, 10 µM, compound concentration 10 uM
Also: unitless GR value; below 1 slowed growth and below 0 cell loss.

COc1ccc(C(=O)N[C@H](C)c2cccc(C(=O)Nc3nc4c(s3)CN(C)CC4)c2)cc1C.O=C(O)C(F)(F)F
Growth Rate (Fibroblast; 0 h, replicate number 1): 0.21
Growth Rate (Fibroblast; 0 h, replicate number 2): -0.72
Growth Rate (U2OS; 18 h, replicate number 2): 0.97
Growth Rate (U2OS; 24 h, replicate number 2): 0.88
Growth Rate (HEK-293T; 0 h, replicate number 1): -0.36

COc1ccc([C@@H]2Sc3ccccc3N(CCN(C)C)C(=O)[C@@H]2OC(C)=O)cc1.Cl [DILTIAZEM HYDROCHLORIDE]
Growth Rate (Fibroblast; 0 h, replicate number 1): 0.54
Growth Rate (Fibroblast; 0 h, replicate number 2): -0.94
Growth Rate (Fibroblast; 12 h, replicate number 1): -0.67
Growth Rate (Fibroblast; 18 h, replicate number 1): 0.89
Growth Rate (Fibroblast; 18 h, replicate number 2): 0.94
Growth Rate (Fibroblast; 24 h, replicate number 1): 0.57
Growth Rate (Fibroblast; 24 h, replicate number 2): 0.87
Growth Rate (U2OS; 0 h, replicate number 2): -0.41
Growth Rate (U2OS; 18 h, replicate number 2): 0.94
Growth Rate (HEK-293T; 0 h, replicate number 1): 0.6
Growth Rate (HEK-293T; 6 h, replicate number 2): 0.11
Growth Rate (HEK-293T; 12 h, replicate number 2): 0.55
Growth Rate (HEK-293T; 18 h, replicate number 2): 0.86
Growth Rate (HEK-293T; 24 h, replicate number 2): 0.86

CC[C@]1(C)C[C@@H](OC(=O)CSc2nnc(N)[nH]2)[C@@]2(C)[C@H](C)CC[C@@]3(CCC(=O)[C@H]32)[C@@H](C)[C@@H]1O
Growth Rate (Fibroblast; 0 h, replicate number 2): -0.62
Growth Rate (Fibroblast; 6 h, replicate number 1): -0.17
Growth Rate (Fibroblast; 6 h, replicate number 2): -0.93
Growth Rate (Fibroblast; 12 h, replicate number 2): 0.82
Growth Rate (Fibroblast; 18 h, replicate number 1): 0.7
Growth Rate (Fibroblast; 18 h, replicate number 2): 0.99
Growth Rate (Fibroblast; 24 h, replicate number 2): 0.97
Growth Rate (U2OS; 12 h, replicate number 1): 0.98
Growth Rate (U2OS; 18 h, replicate number 1): 0.95
Growth Rate (HEK-293T; 6 h, replicate number 1): 0.09
Growth Rate (HEK-293T; 6 h, replicate number 2): 0.46
Growth Rate (HEK-293T; 12 h, replicate number 1): 0.86
Growth Rate (HEK-293T; 12 h, replicate number 2): 0.81
Growth Rate (HEK-293T; 18 h, replicate number 1): 0.65
Growth Rate (HEK-293T; 18 h, replicate number 2): 0.83
Growth Rate (HEK-293T; 24 h, replicate number 1): 0.84
Growth Rate (HEK-293T; 24 h, replicate number 2): 0.87

CN(C)c1ncc2cc(-c3ccc(-c4ncccc4F)cc3Cl)c(=O)n(C[C@H]3OC[C@H](N)CO3)c2n1
Growth Rate (Fibroblast; 0 h, replicate number 1): -0.2
Growth Rate (Fibroblast; 0 h, replicate number 2): -0.89
Growth Rate (U2OS; 12 h, replicate number 2): 0.96
Growth Rate (U2OS; 18 h, replicate number 2): 0.99
Growth Rate (HEK-293T; 0 h, replicate number 1): -1

O=C(NCc1ccc(F)cc1)C1CCN(S(=O)(=O)c2cc(Cl)cc(Cl)c2)CC1
Growth Rate (Fibroblast; 0 h, replicate number 2): 0.31
Growth Rate (Fibroblast; 6 h, replicate number 1): 0.84
Growth Rate (Fibroblast; 12 h, replicate number 1): 0.58
Growth Rate (Fibroblast; 12 h, replicate number 2): 0.3
Growth Rate (Fibroblast; 18 h, replicate number 1): 0.84
Growth Rate (Fibroblast; 18 h, replicate number 2): 0.46
Growth Rate (Fibroblast; 24 h, replicate number 1): 0.76
Growth Rate (Fibroblast; 24 h, replicate number 2): 0.67
Growth Rate (U2OS; 0 h, replicate number 2): 0.76
Growth Rate (U2OS; 6 h, replicate number 1): 0.81
Growth Rate (U2OS; 6 h, replicate number 2): 0.72
Growth Rate (U2OS; 12 h, replicate number 1): 0.86
Growth Rate (U2OS; 12 h, replicate number 2): 0.98
Growth Rate (U2OS; 18 h, replicate number 1): 0.9
Growth Rate (U2OS; 18 h, replicate number 2): 0.98
Growth Rate (U2OS; 24 h, replicate number 2): 0.98
Growth Rate (HEK-293T; 0 h, replicate number 2): -0.42
Growth Rate (HEK-293T; 6 h, replicate number 1): 0.66
Growth Rate (HEK-293T; 12 h, replicate number 1): 0.95
Growth Rate (HEK-293T; 18 h, replicate number 1): 0.7
Growth Rate (HEK-293T; 24 h, replicate number 1): 0.78

COc1cc(-c2cc([C@H](O)C3CC3)n3ncnc(N)c23)ccc1CO
Growth Rate (Fibroblast; 0 h, replicate number 2): 0.98
Growth Rate (Fibroblast; 24 h, replicate number 2): 0.98
Growth Rate (U2OS; 12 h, replicate number 2): 0.85
Growth Rate (U2OS; 18 h, replicate number 2): 0.89
Growth Rate (U2OS; 24 h, replicate number 1): 0.8
Growth Rate (U2OS; 24 h, replicate number 2): 0.91
Growth Rate (HEK-293T; 6 h, replicate number 1): -0.7
Growth Rate (HEK-293T; 6 h, replicate number 2): -0.8
Growth Rate (HEK-293T; 12 h, replicate number 1): 0.16
Growth Rate (HEK-293T; 12 h, replicate number 2): 0.26
Growth Rate (HEK-293T; 18 h, replicate number 1): 0.62
Growth Rate (HEK-293T; 18 h, replicate number 2): 0.76
Growth Rate (HEK-293T; 24 h, replicate number 1): 0.74
Growth Rate (HEK-293T; 24 h, replicate number 2): 0.87

CC(C)(C)c1cc(NC(=O)c2csc(Nc3ccc(Cl)cc3)n2)no1
Growth Rate (Fibroblast; 0 h, replicate number 1): -1
Growth Rate (Fibroblast; 6 h, replicate number 1): 0.89
Growth Rate (Fibroblast; 12 h, replicate number 2): 0.46
Growth Rate (Fibroblast; 18 h, replicate number 2): 0.74
Growth Rate (Fibroblast; 24 h, replicate number 1): 0.8
Growth Rate (Fibroblast; 24 h, replicate number 2): 0.87
Growth Rate (U2OS; 24 h, replicate number 1): -0.59
Growth Rate (HEK-293T; 0 h, replicate number 1): 0.27
Growth Rate (HEK-293T; 0 h, replicate number 2): -0.44
Growth Rate (HEK-293T; 6 h, replicate number 2): 0.84
Growth Rate (HEK-293T; 12 h, replicate number 2): 0.99
Growth Rate (HEK-293T; 18 h, replicate number 1): 0.94
Growth Rate (HEK-293T; 24 h, replicate number 1): 0.97
